# Measurements taken from PubChem BioAssay AID1963965 (Molecular Pharmacology Branch, DTP, NCI, 2024).
# Test system: 996289-038-R-J1-PDC spheroid viability
# Assay: Anticancer human tumor 996289-038-R-J1-PDC patient-derived colon adenocarcinoma cell line growth inhibition [PI3K]
# Conditions: spheroids with HUVEC and MSC; for IC50: curve of first compound; for viability, T/C: stronger effect = lower value
# Summary of the method: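 We assembled tumor spheroids that included a stromal compartment of HUVEC and MSCs, then exposed them to targeted agents alone and together with PI3K pathway inhibitors. Concentration series descended by half-log from clinically achievable Cmax levels. Viability served as the endpoint.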
# [1] = second compound 0.0316 µM, first compound 0.0316 µM
# [2] = second compound 0.0316 µM, first compound 0.1 µM
# [3] = second compound 0.1 µM, first compound 0.0316 µM
# [4] = second compound 0.1 µM, first compound 0.1 µM
# [5] = second compound 0.316 µM, first compound 0.0316 µM
# [6] = second compound 0.316 µM, first compound 0.1 µM
# [7] = second compound 1 µM, first compound 0.0316 µM
# [8] = second compound 1 µM, first compound 0.1 µM
# [9] = second compound 3.16 µM, first compound 0.0316 µM
# [10] = second compound 3.16 µM, first compound 0.1 µM
# [11] = second compound 10 µM, first compound 0.0316 µM
# [12] = second compound 10 µM, first compound 0.1 µM
# 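Note: spheroids exposed to compounds for seven days before viability read.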
# 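Throughout, for viability, T/C: luminescence used as a proxy for viable cell amount; percent viability relative to DMSO vehicle control as 100%.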
compound,measurement,setting,value
C[C@@H](NC(=O)c1ncnc(N)c1Cl)c1ncc(C(=O)Nc2cc(C(F)(F)F)c(Cl)cn2)s1 + CC(Nc1ncnc2nc[nH]c12)c1cc2cccc(Cl)c2c(=O)n1-c1ccccc1,IC50,second compound 0.0316 µM,> 10 µM
same,IC50,second compound 0.1 µM,> 10 µM
same,IC50,second compound 0.316 µM,> 10 µM
same,IC50,second compound 1 µM,> 10 µM
same,IC50,second compound 3.16 µM,> 10 µM
same,IC50,second compound 10 µM,> 10 µM
same,"viability, T/C",[1],102%
same,"viability, T/C",[2],102%
same,"viability, T/C","second compound 0.0316 µM, first compound 0.316 µM",98.6%
same,"viability, T/C","second compound 0.0316 µM, first compound 1 µM",128%
same,"viability, T/C","second compound 0.0316 µM, first compound 3.16 µM",137%
same,"viability, T/C","second compound 0.0316 µM, first compound 10 µM",126%
same,"viability, T/C",[3],115%
same,"viability, T/C",[4],85.2%
same,"viability, T/C","second compound 0.1 µM, first compound 0.316 µM",125%
same,"viability, T/C","second compound 0.1 µM, first compound 1 µM",120%
same,"viability, T/C","second compound 0.1 µM, first compound 3.16 µM",124%
same,"viability, T/C","second compound 0.1 µM, first compound 10 µM",111%
same,"viability, T/C",[5],105%
same,"viability, T/C",[6],103%
same,"viability, T/C","second compound 0.316 µM, first compound 0.316 µM",116%
same,"viability, T/C","second compound 0.316 µM, first compound 1 µM",108%
same,"viability, T/C","second compound 0.316 µM, first compound 3.16 µM",142%
same,"viability, T/C","second compound 0.316 µM, first compound 10 µM",130%
same,"viability, T/C",[7],105%
same,"viability, T/C",[8],108%
same,"viability, T/C","second compound 1 µM, first compound 0.316 µM",95.8%
same,"viability, T/C","second compound 1 µM, first compound 1 µM",108%
same,"viability, T/C","second compound 1 µM, first compound 3.16 µM",135%
same,"viability, T/C","second compound 1 µM, first compound 10 µM",120%
same,"viability, T/C",[9],83.3%
same,"viability, T/C",[10],93.9%
same,"viability, T/C","second compound 3.16 µM, first compound 0.316 µM",115%
same,"viability, T/C","second compound 3.16 µM, first compound 1 µM",119%
same,"viability, T/C","second compound 3.16 µM, first compound 3.16 µM",140%
same,"viability, T/C","second compound 3.16 µM, first compound 10 µM",116%
same,"viability, T/C",[11],93.1%
same,"viability, T/C",[12],102%
same,"viability, T/C","second compound 10 µM, first compound 0.316 µM",102%
same,"viability, T/C","second compound 10 µM, first compound 1 µM",98.1%
same,"viability, T/C","second compound 10 µM, first compound 3.16 µM",122%
same,"viability, T/C","second compound 10 µM, first compound 10 µM",101%
Cn1ncnc1[C@H]1c2n[nH]c(=O)c3cc(F)cc(c23)N[C@@H]1c1ccc(F)cc1 + CC(Nc1ncnc2nc[nH]c12)c1cc2cccc(Cl)c2c(=O)n1-c1ccccc1,IC50,second compound 0.0316 µM,> 0.1 µM
same,IC50,second compound 0.1 µM,> 0.1 µM
same,IC50,second compound 0.316 µM,> 0.1 µM
same,IC50,second compound 1 µM,> 0.1 µM
same,IC50,second compound 3.16 µM,> 0.1 µM
same,IC50,second compound 10 µM,> 0.1 µM
same,"viability, T/C","second compound 0.0316 µM, first compound 0.000316 µM",97.1%
same,"viability, T/C","second compound 0.0316 µM, first compound 0.001 µM",99.7%
same,"viability, T/C","second compound 0.0316 µM, first compound 0.00316 µM",107%
same,"viability, T/C","second compound 0.0316 µM, first compound 0.01 µM",104%
same,"viability, T/C",[1],111%
same,"viability, T/C",[2],94.3%
same,"viability, T/C","second compound 0.1 µM, first compound 0.000316 µM",107%
same,"viability, T/C","second compound 0.1 µM, first compound 0.001 µM",98.4%
same,"viability, T/C","second compound 0.1 µM, first compound 0.00316 µM",96.1%
same,"viability, T/C","second compound 0.1 µM, first compound 0.01 µM",96.3%
same,"viability, T/C",[3],122%
same,"viability, T/C",[4],96.4%
same,"viability, T/C","second compound 0.316 µM, first compound 0.000316 µM",93.9%
same,"viability, T/C","second compound 0.316 µM, first compound 0.001 µM",102%
same,"viability, T/C","second compound 0.316 µM, first compound 0.00316 µM",110%
same,"viability, T/C","second compound 0.316 µM, first compound 0.01 µM",100%
same,"viability, T/C",[5],109%
same,"viability, T/C",[6],89.8%
same,"viability, T/C","second compound 1 µM, first compound 0.000316 µM",95.1%
same,"viability, T/C","second compound 1 µM, first compound 0.001 µM",94.3%
same,"viability, T/C","second compound 1 µM, first compound 0.00316 µM",103%
same,"viability, T/C","second compound 1 µM, first compound 0.01 µM",96.3%
same,"viability, T/C",[7],103%
same,"viability, T/C",[8],95.2%
same,"viability, T/C","second compound 3.16 µM, first compound 0.000316 µM",90.4%
same,"viability, T/C","second compound 3.16 µM, first compound 0.001 µM",109%
same,"viability, T/C","second compound 3.16 µM, first compound 0.00316 µM",94.5%
same,"viability, T/C","second compound 3.16 µM, first compound 0.01 µM",96.3%
same,"viability, T/C",[9],95.4%
same,"viability, T/C",[10],94.8%
same,"viability, T/C","second compound 10 µM, first compound 0.000316 µM",90%
same,"viability, T/C","second compound 10 µM, first compound 0.001 µM",90.5%
same,"viability, T/C","second compound 10 µM, first compound 0.00316 µM",96.8%
same,"viability, T/C","second compound 10 µM, first compound 0.01 µM",81.5%
same,"viability, T/C",[11],94.6%
same,"viability, T/C",[12],77.8%
